In ChEMBL document CHEMBL1201862, “PubChem BioAssay data set” (2004):
Calls of active or inactive are those of the source.

How the values were obtained:
[1] = biological target: T1, Tyrosine-protein phosphatase non-receptor type 22 (Homo sapiens, UniProt Q9Y2R2); assay type: functional
T1 sequence (Q9Y2R2 whole entry): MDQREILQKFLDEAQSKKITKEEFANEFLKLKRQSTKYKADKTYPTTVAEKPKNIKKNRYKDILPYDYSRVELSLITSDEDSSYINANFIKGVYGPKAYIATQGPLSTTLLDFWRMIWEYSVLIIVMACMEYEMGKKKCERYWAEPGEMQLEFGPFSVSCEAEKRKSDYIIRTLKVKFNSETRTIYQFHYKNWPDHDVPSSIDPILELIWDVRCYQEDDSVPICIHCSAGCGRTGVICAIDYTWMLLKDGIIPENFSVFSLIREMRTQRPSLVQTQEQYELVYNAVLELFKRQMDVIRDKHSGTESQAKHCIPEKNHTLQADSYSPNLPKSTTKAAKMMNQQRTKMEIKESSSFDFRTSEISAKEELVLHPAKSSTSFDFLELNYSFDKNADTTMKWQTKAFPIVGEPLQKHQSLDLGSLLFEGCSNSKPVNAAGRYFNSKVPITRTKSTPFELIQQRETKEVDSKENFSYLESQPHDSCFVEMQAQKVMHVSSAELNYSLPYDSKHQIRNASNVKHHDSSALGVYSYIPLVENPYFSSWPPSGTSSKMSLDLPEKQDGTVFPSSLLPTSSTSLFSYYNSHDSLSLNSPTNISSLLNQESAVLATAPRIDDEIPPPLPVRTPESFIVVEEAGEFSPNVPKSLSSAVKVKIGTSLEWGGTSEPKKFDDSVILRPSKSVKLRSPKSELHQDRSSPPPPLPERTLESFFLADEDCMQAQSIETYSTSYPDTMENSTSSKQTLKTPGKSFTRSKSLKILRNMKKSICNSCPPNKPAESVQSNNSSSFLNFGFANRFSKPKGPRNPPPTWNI

[2] = biological target: T1, Tyrosine-protein phosphatase non-receptor type 22; assay type: functional; remark: listed apart in the source
[3] = biological target: T2, Tyrosine-protein phosphatase non-receptor type 7 (Homo sapiens, UniProt P35236); assay type: functional
T2 sequence (P35236 whole entry): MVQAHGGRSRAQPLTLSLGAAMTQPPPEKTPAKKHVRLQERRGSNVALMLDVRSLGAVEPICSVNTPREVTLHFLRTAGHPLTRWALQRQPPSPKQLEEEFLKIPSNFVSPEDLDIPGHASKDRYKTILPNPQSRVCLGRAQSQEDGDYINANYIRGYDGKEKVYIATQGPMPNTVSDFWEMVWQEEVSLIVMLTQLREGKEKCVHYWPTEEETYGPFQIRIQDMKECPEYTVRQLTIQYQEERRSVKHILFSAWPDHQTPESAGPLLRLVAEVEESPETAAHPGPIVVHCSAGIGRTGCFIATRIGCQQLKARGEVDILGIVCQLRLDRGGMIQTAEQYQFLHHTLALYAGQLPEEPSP

[4] = biological target: T3, Exodeoxyribonuclease V (Escherichia coli (strain K12), UniProt P04993+P07648+P08394); experiment: E. coli RecBCD inhibitors, dose response, counter-screen for AddAB inhibitor project, absorbance, V66 E. coli, mutant T4 phage (AID 492957); assay type: functional, cell-based, Escherichia coli str. K-12 substr. MG1655
T3 sequence (P04993 whole entry): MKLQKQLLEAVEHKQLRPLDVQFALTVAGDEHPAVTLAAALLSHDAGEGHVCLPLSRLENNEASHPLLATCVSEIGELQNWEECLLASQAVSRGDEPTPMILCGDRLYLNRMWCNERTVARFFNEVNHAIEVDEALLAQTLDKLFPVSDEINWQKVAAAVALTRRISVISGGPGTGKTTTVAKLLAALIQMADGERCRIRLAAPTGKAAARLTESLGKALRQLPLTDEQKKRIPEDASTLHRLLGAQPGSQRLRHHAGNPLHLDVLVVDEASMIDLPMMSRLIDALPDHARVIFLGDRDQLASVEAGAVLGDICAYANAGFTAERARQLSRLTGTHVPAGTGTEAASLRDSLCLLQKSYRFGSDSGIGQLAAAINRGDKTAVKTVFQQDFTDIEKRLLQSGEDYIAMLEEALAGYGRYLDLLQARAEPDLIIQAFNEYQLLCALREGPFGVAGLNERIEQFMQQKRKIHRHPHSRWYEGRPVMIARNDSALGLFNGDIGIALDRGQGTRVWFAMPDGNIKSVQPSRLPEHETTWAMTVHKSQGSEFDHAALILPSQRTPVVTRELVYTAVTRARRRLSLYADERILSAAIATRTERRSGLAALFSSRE
T3 sequence (P07648 whole entry): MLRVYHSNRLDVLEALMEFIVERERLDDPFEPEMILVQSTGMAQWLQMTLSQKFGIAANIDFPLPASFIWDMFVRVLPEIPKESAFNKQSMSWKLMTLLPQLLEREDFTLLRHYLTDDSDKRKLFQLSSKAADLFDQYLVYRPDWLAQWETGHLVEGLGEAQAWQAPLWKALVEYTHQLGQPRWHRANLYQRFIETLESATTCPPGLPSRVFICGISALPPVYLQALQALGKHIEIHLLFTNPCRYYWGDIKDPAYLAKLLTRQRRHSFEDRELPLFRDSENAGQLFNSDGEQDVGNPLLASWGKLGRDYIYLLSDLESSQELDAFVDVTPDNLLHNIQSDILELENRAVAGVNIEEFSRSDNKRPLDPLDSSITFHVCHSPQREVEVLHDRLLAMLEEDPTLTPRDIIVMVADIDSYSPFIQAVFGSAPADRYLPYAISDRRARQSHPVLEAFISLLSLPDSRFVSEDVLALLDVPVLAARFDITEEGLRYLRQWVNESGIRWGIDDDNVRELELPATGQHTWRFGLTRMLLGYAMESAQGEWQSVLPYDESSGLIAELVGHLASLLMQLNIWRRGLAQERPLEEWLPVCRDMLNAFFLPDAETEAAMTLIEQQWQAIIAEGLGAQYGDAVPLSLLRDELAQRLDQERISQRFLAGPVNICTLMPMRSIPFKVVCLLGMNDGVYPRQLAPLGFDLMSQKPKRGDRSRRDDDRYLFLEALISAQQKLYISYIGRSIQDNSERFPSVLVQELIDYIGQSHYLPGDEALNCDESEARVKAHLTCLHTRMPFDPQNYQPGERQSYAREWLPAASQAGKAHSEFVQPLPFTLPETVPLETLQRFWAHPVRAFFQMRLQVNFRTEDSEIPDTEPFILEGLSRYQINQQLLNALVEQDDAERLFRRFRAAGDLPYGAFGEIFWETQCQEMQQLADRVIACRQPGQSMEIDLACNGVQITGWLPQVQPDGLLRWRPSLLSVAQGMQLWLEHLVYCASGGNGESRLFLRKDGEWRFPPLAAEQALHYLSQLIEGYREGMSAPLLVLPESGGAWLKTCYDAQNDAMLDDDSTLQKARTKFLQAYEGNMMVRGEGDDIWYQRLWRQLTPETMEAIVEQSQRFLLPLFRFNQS
T3 sequence (P08394 whole entry): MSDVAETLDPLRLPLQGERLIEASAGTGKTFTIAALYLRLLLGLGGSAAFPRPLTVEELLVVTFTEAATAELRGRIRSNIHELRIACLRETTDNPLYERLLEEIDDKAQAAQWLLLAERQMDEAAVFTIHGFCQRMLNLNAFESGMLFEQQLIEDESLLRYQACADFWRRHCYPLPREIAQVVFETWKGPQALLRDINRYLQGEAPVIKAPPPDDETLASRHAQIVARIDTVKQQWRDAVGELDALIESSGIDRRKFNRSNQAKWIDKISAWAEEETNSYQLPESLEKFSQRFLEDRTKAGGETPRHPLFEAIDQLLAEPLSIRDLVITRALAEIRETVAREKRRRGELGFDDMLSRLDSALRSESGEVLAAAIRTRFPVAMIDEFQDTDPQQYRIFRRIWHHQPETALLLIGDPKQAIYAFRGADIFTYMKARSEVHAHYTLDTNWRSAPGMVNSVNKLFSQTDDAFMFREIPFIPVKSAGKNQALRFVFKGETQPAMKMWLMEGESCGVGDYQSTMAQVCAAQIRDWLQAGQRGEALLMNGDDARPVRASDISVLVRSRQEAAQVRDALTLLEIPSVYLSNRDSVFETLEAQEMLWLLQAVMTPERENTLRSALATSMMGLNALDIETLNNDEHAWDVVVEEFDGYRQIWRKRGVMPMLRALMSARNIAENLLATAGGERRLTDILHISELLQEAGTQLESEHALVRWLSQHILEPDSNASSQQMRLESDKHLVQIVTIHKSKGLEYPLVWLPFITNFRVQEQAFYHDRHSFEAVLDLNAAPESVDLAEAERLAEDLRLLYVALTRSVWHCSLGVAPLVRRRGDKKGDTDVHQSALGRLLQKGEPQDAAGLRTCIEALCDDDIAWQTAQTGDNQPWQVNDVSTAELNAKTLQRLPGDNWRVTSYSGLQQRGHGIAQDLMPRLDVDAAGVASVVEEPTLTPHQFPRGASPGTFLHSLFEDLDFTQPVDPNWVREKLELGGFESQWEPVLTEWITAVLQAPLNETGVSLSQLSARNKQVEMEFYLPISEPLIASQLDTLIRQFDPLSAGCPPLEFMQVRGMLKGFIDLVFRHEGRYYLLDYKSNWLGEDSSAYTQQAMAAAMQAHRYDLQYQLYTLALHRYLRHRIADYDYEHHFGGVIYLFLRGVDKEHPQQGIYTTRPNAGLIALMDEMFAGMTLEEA

[5] = Counterscreen for AddAB inhibitors: absorbance-based bacterial cell-based high throughput dose response assay for inhibitors of bacterial viability. [Related pubchem assays (depositor defined):AID435030, AID449728, AID449731, AID488942, AID488955, AID488956]; assay type: functional
[6] = system: Streptococcus; experiment: Group A Streptococcus viability loss, dose response, counter-screen for streptokinase expression inhibitor project, luminescence, BacTiterGlo (AID 1915); assay type: functional, organism-based;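 note: potency for reduction of bacterial viability or growth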
[7] = biological target: Nonstructural protein 1 (Influenza A virus, UniProt Q194T2); assay type: functional, Influenza A virus (A/California/07/2009(H1N1))
Sequence of Nonstructural protein 1 (Q194T2 whole entry): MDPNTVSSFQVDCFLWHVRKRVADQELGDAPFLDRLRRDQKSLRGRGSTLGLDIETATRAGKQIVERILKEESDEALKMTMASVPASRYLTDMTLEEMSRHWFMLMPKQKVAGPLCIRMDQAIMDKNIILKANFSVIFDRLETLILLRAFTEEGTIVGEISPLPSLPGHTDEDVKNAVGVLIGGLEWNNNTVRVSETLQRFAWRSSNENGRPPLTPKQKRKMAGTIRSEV

[8] = biological target: Peroxisome proliferator-activated receptor gamma/Nuclear receptor coactivator 2 (Homo sapiens, UniProt P37231); experiment: (§1) TR-FRET dose response biochemical High Throughput Screening assay for agonists of the steroid receptor coactivator 2 (SRC-2) recruitment by the peroxisome proliferator-activated receptor gamma (PPAR gamma): non-selective agonists. [Related pubchem assays: 1297, 1032 ]; assay type: functional
[9] = system: Streptococcus sp. 'group A'; experiment: growth inhibition of control SK(-) GAS strain, dose response, counter-screen for streptokinase expression inhibitor project, luminescence, kanamycin, BacTiterGlo, confirmation (AID 1900); assay type: functional, organism-based
[10] = biological target: T4, Streptokinase A (Streptococcus pyogenes serotype M1, UniProt P10520); experiment: S. pyogenes streptokinase expression inhibitors, potency, dose response, plasminogen activation absorbance, OD405 (AID 1914); assay type: functional, Streptococcus pyogenes M1 GAS;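 note: secreted streptokinase activity via plasminogen activation per viability signal from cell pellet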
T4 sequence (P10520 whole entry): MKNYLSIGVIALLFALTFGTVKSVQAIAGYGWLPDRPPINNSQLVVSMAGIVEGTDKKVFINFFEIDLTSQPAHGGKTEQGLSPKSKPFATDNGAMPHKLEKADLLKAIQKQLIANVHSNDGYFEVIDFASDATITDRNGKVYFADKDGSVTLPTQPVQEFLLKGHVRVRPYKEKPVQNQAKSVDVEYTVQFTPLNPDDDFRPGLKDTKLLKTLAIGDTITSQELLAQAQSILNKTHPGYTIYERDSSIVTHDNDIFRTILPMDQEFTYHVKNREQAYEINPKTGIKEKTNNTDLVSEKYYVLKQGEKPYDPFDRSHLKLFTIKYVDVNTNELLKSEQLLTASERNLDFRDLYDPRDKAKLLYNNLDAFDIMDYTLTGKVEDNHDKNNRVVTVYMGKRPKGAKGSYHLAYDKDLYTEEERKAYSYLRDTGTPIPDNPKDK

[11] = biological target: Peroxisome proliferator-activated receptor gamma/Nuclear receptor coactivator 1 (Homo sapiens, UniProt P37231); experiment: as §1, with “1 (SRC-1)” for “2 (SRC-2)”, “assays (depositor defined):AID1300, AID1808, AID504735, AID631]” for “assays: 1297, 1032 ]”; assay type: protein assay
Sequence of Peroxisome proliferator-activated receptor gamma/Nuclear receptor coactivator 1 (P37231 whole entry): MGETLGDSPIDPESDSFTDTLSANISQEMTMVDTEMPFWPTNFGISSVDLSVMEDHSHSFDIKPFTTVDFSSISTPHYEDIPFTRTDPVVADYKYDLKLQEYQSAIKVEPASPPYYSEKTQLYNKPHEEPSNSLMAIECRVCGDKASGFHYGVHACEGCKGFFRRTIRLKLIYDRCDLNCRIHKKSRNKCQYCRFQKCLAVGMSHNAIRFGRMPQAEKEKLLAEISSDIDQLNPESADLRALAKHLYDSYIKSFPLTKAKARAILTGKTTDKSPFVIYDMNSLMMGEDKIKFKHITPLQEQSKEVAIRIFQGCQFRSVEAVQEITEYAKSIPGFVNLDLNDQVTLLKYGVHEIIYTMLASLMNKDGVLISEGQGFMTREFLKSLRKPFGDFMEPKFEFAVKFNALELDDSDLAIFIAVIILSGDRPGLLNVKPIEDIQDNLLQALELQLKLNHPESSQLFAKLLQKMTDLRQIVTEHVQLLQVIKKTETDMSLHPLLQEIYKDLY
Sequence of Peroxisome proliferator-activated receptor gamma/Nuclear receptor coactivator 1 (Q15788 whole entry, further chain): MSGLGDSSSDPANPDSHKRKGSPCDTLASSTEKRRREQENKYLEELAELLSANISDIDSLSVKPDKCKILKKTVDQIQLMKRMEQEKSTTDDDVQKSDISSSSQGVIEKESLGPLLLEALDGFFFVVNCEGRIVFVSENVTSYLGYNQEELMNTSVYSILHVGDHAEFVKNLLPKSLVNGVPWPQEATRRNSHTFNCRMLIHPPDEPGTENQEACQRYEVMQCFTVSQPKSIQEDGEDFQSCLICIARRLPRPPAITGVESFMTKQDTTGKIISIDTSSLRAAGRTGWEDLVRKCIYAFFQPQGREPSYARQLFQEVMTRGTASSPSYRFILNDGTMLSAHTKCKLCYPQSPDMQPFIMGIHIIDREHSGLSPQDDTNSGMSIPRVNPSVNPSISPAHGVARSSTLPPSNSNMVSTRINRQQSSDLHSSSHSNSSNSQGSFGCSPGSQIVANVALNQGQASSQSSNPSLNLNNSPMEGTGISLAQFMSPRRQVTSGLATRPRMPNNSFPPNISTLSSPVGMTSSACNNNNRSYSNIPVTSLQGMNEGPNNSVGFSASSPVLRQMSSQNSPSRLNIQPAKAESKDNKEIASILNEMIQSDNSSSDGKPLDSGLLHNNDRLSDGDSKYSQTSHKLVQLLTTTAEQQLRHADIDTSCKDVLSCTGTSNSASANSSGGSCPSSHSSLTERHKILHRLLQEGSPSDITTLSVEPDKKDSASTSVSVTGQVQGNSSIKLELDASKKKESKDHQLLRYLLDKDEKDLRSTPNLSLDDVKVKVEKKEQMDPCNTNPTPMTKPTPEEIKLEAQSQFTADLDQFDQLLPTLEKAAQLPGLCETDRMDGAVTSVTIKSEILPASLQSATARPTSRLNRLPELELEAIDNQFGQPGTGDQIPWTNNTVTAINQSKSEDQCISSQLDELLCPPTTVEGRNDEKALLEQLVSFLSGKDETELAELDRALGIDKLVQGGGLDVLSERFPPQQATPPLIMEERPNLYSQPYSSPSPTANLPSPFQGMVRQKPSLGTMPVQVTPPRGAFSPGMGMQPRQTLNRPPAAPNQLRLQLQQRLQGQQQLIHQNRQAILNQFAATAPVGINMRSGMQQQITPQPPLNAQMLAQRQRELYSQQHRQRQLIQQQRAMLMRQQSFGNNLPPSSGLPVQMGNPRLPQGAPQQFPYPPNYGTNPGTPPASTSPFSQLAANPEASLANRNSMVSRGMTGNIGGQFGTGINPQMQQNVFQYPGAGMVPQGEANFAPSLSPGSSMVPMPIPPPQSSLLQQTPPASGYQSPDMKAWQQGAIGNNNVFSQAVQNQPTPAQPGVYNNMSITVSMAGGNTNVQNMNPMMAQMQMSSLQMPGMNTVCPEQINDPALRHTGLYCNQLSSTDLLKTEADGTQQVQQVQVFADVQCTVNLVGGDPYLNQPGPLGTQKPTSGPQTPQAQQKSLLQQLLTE

[12] = biological target: Peroxisome proliferator-activated receptor gamma/Nuclear receptor coactivator 3 (Homo sapiens, UniProt P37231); experiment: as §1, with “3 (SRC-3)” for “2 (SRC-2)”, “1301 (Confirmation screen.), 1048 (Primary screen.)]” for “1297, 1032 ]”; assay type: functional
Sequence of Peroxisome proliferator-activated receptor gamma/Nuclear receptor coactivator 3 (P37231 whole entry): as the sequence (P37231 whole entry) above
Sequence of Peroxisome proliferator-activated receptor gamma/Nuclear receptor coactivator 3 (Q9Y6Q9 whole entry, further chain): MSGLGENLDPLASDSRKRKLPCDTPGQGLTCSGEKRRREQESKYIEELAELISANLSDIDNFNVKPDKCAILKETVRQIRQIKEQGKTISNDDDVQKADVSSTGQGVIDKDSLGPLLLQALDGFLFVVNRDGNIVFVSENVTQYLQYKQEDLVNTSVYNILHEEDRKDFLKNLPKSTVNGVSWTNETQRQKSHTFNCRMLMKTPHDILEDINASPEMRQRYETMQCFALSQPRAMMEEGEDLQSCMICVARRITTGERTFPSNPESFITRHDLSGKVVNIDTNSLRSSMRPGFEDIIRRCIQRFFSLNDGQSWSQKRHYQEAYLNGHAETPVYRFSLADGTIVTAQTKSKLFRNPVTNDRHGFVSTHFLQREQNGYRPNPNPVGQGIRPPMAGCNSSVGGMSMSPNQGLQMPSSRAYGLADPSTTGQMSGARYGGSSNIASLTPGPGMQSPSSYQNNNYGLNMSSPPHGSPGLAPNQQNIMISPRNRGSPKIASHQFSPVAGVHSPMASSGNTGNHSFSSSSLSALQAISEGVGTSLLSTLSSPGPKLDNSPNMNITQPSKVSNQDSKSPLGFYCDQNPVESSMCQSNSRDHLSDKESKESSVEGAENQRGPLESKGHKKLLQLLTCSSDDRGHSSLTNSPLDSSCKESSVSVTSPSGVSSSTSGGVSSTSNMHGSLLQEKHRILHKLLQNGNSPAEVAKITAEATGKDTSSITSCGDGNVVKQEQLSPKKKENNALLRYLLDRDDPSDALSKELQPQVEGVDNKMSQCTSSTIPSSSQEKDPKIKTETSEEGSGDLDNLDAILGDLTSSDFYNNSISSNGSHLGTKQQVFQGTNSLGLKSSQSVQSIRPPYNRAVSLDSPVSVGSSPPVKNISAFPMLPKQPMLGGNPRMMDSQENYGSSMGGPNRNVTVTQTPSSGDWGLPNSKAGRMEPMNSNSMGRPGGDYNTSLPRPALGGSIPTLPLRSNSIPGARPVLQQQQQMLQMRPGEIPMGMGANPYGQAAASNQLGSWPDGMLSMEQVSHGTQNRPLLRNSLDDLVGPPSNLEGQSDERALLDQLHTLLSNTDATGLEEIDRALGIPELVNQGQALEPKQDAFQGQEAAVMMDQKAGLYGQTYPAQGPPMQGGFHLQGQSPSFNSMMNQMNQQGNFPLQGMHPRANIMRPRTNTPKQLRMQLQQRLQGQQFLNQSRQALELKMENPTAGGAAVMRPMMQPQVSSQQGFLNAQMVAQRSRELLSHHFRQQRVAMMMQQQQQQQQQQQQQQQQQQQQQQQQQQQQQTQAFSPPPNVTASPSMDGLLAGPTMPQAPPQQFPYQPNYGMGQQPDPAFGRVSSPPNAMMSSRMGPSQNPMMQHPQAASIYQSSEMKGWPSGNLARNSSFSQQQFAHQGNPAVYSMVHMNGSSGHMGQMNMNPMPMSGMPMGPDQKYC

| SMILES | IC50 [1] | IC50 [2] | IC50 [3] | further results |
| --- | --- | --- | --- | --- |
| CCOC(=O)C(NC(=O)CCl)(Nc1ccc(C(O)(C(=O)OCC)C(F)(F)F)cc1)C(F)(F)F (stereo not drawn) | > 79.4 µM (inactive) | > 79.4 µM (inactive) | > 79.4 µM (inactive) | – |
| O=C(Nc1ccc2[nH]c(O)nc2c1)c1ccc([N+](=O)[O-])o1 | – | – | – | IC50 [4]: > 119 µM (inactive); IC50 [5]: 29 µM (inactive) |
| O=C(NNC(=O)c1cccc(Br)c1)C(=O)N1CCCCC1 | > 79.4 µM (inactive) | > 79.4 µM (inactive) | > 79.4 µM (inactive) | – |
| CCCCC(C(=O)OCC)C(N)Cc1ccc(F)cc1 (stereo not drawn) | > 79.4 µM (inactive) | > 79.4 µM (inactive) | > 79.4 µM (inactive) | – |
| CC12CCC(C(=O)N(CSC(=S)N/N=C\c3ccccc3O)C1=O)C2(C)C (stereo not drawn) | – | – | – | EC50 [6]: 5.29 µM (active); IC50 [7]: 2.09 µM (active); EC50 [8]: 7.31 µM (active); EC50 [9]: 2.43 µM (active); EC50 [10]: > 150 µM (not active); EC50 [11]: 7.15 µM (active); EC50 [12]: 34.9 µM (not active) |
